Legend:
[1] = system: miRNA-26a; test: Level of miRNA-26a in exosomes isolated from treated fibroblasts (real-time qPCR); assay type: cell-based, human
Description: After treating the subcultured passage 27 FB with betaine for 48 hours, the medium was collected and centrifuged at 3000×g for 30 minutes. After centrifugation, only the supernatant was recovered and transferred to Ultra-15 Centrifugal Filter Units (Amicon, MERCK, C7715) and centrifuged at 4000×g for 40 minutes. Only the supernatant was recovered, Total Exosome Isolation Reagent (Invitrogen, Cat No #4478539) was added at ½ the volume of the supernatant, and the mixture was allowed to react at 4° C. overnight. The next day, after centrifugation at 10000×g for 1 hour, the supernatant was removed by suction, and then a final exosome pellet was re-suspended in PBS. The exosomes obtained in the present example are hereinafter referred to as “fibroblast-derived exosomes”.
2×10^6 FB cells were inoculated onto a 75 T flask, cultured for 24 hours, and then treated with betaine (0.1, 1 and 10 mM). After the cells were additionally cultured for 48 hours, exosomes were isolated by the method of Example 1-2, and microRNA (hereinafter described as miRNA) was extracted from the exosomes isolated from the culture medium using an RNeasy plus mini kit (Qiagen, Germany) according to the manufacturer's protocol.
Real-time qPCR was performed with a tagman probe targeting mature RNA. The relative expression level of the intracellular target miRNA was normalized with the expression level of RNU48, which is used as a housekeeping gene during miRNA quantification, and then shown as a relative %. The relative expression of miRNA-26a in exosomes was normalized with the expression of […], which is used as a housekeeping gene during quantification of miRNA in fibroblast exosomes, and then shown as a relative %. For all real-time qPCR analyses, an Applied Biosystems 7500 (Applied Biosystems) apparatus was used.
The FB was treated with the material shown in the following Table 1 to isolate exosomes in the same manner as in Example 1-1, and the level of miRNA-26a was confirmed in the exosomes by the method in Example 1-4.
Thereafter, after fibroblasts (FB) were treated with the Camellia japonica flower extract for 48 hours, exosomes were isolated by the method in Example 1-2. Furthermore, the level of miR-26a was confirmed in exosomes isolated from the culture medium by the method in Example 1-4. As a result of the confirmation, it could be confirmed that the level of miRNA-26a was increased in the exosomes isolated from the FB treated with the Camellia flower extract at a concentration of 50 ppm compared to the control which was an untreated group (FIG. 9).

[2] = system: C2C12 cells; test: Cytotoxicity of betaine, CCK-8 cell viability in myofibroblasts; assay type: cell-based, mouse; conditions: betaine at different concentrations, 24 hours, CCK-8, FIG. 1B
Description: (§1) As human skin dermal cells, normal human dermal fibroblasts (NHDF, fibroblasts) isolated from adult samples were purchased from LONZA (Cat. CC-2511). As […], C2C12 cells, which are myoblasts isolated and cultured from C3H mice, were purchased from ATCC (CRL-1772).
(§2) Subcultured passage 27 human fibroblast HS68 (hereinafter referred to as FB) or C2C12 was inoculated onto a 96-well plate at a concentration of 1×10^4 cells/well and cultured in an incubator at 5% CO2 and 37° C. for 24 hours. After culturing, cells were treated with betaine at different concentrations and additionally cultured for 24 hours, and an untreated group was used as a control. After the cells were washed with PBS, the cells were additionally cultured with CCK-8 (DONGJIN, CK04-11) for 2 hours, and absorbance was measured at 450 nm using a microplate reader. From the measured results, relative cell viability according to the betaine treatment concentration was calculated by setting the value of the control to 100.

[3] = system: MyoD; test: Myogenesis marker expression in differentiated C2C12 cells, qPCR; assay type: cell-based, mouse; conditions: differentiated C2C12, 48 hours; betaine 0.1 mM or exosomes about 20 μg/ml, FIG. 5
Description: (§3) C2C12 cells were inoculated onto a 6-well plate at a concentration of 1.5×10^5 cells/well and cultured for 24 hours. Thereafter, the medium was exchanged with a medium supplemented with 2% horse serum, and the cells were further cultured for 72 hours to promote the differentiation of C2C12 cells. After the differentiation was completed, the cells were treated with betaine at 0.1 mM or fibroblast-derived exosomes (about 20 μg/ml) obtained in Example 1-2 and further cultured for 48 hours. Total RNA was extracted with an RNeasy plus mini kit and cDNA was synthesized with SuperScript™ III (Invitrogen, USA). Thereafter, qPCR was performed with a target gene taqman probe, and then analysis was performed.

[4] = system: atrogin-1; test: Muscle loss marker expression in differentiated C2C12 cells, qPCR; assay type: cell-based, mouse; conditions: differentiated C2C12, 48 hours; betaine 0.1 mM or exosomes about 20 μg/ml, FIG. 4B
Description: as §3

[5] = system: MyoD; test: Myogenesis marker protein level in differentiated C2C12 cells, western blotting; assay type: cell-based, mouse; conditions: differentiated C2C12, 48 hours; betaine 0.1 or 0.5 mM or exosomes, FIG. 7
Description: (§4) C2C12 cells were inoculated onto a 6-well plate at a concentration of 5×10^5 cells/well and cultured for 24 hours. Thereafter, the medium was exchanged with a medium supplemented with 2% horse serum, and the cells were further cultured for 72 hours to promote the differentiation of C2C12 cells. After the differentiation was completed, the cells were treated with betaine (0.1 and 0.5 mM) or fibroblast-derived exosomes and further cultured for 48 hours. Thereafter, cells were lysed by adding a lysis buffer (1% NP40, 0.05 M Tris-HCl, pH 7.5, 0.15 M NaCl and 0.01 MgCl2) including a protease inhibitor to the C2C12 cells, and the concentration of proteins was measured by a […] (BCA) method. The quantified protein was separated with SDS-PAGE and transferred to a PVDF membrane, and the protein expression level of each muscle loss marker was confirmed with an antibody.

[6] = system: MURF1; test: Muscle loss marker expression in differentiated C2C12 cells, qPCR; assay type: cell-based, mouse; conditions: differentiated C2C12, 48 hours; betaine 0.1 mM or exosomes about 20 μg/ml, FIG. 4A
Description: as §3
(§5) C2C12 cells were inoculated onto a 6-well plate at a concentration of 1.5×10^5 cells/well and cultured for 24 hours. Thereafter, the medium was exchanged with a medium supplemented with 2% horse serum, and the cells were further cultured for 72 hours to promote the differentiation of C2C12 cells. After the differentiation was completed, the cells were treated with the Camellia japonica flower extract at 50 ppm or the exosomes (about 20 μg/ml) obtained in Example 4-1 and further cultured for 48 hours. Thereafter, the change in expression of the target gene was confirmed by qPCR by the method in Example 2-1.

[7] = system: myostatin; test: as above; assay type: cell-based, mouse; conditions: differentiated C2C12, 48 hours; betaine 0.1 mM or exosomes about 20 μg/ml, FIG. 4C
Description: as §3, §5

[8] = system: MURF1; test: Muscle loss marker protein level in differentiated C2C12 cells, western blotting; assay type: cell-based, mouse; conditions: differentiated C2C12, 48 hours; betaine 0.1 or 0.5 mM or exosomes, FIG. 6
Description: as §4

[9] = system: atrogin-1; test: as above; assay type: cell-based, mouse; conditions: differentiated C2C12, 48 hours; betaine 0.1 or 0.5 mM or exosomes, FIG. 6
Description: as §4

[10] = system: myostatin; test: as above; assay type: cell-based, mouse; conditions: differentiated C2C12, 48 hours; betaine 0.1 or 0.5 mM or exosomes, FIG. 6
Description: as §4

[11] = system: human fibroblast HS68 (FB); test: Cytotoxicity of betaine, CCK-8 cell viability in fibroblasts; assay type: cell-based; conditions: betaine at different concentrations, 24 hours, CCK-8, FIG. 1A
Description: as §1, §2

Q: `O=c1c(O)c(-c2cc(O)c(O)c(O)c2)oc2cc(O)cc(O)c12` [Myricetin] was tested. Which “miRNA-26a level in exosomes, fold change (vs. control)” value ([1]; FB treated with 25 uM) did it give?
A: The value was 1.599 fold.

Q: `O=C1C[C@@H](c2ccc(O)cc2)Oc2cc(O)cc(O)c21` [Naringenin] was tested. Which “miRNA-26a level in exosomes, fold change (vs. control)” value ([1]; FB treated with 10 uM) did it give?
A: The value was 1.854 fold.

Q: Which “miRNA-26a level in exosomes, fold change (vs. control)” value ([1]; FB treated with 30 uM) does the source give for `COc1ccc(-c2cc(=O)c3c(OC)c(OC)c(OC)c(OC)c3o2)cc1OC` [Nobiletin] here?
A: Its value is 1.447 fold.

Q: Which “miRNA-26a level in exosomes, fold change (vs. control)” value ([1]; FB treated with 1 ppm) does the source give for Camelliaside A here?
A: The value was 1.956 fold.

Q: How did the “miRNA-26a level in exosomes, fold change (vs. control)” value ([1]; FB treated with 10 ppm) turn out when Copper Tripeptide was run?
A: Its value is 1.743 fold.

Q: For L-carnosine, which “miRNA-26a level in exosomes, fold change (vs. control)” value ([1]; FB treated with 5 ppm (0.0005%)) is on record?
A: The value was 1.537 fold.

Q: For Kojyl carboxy dipeptide-23, which “miRNA-26a level in exosomes, fold change (vs. control)” value ([1]; FB treated with 10 ppm) is on record?
A: The value was 1.483 fold.

Q: Which results are given for `C[N+](C)(C)CC(=O)O` [Betaine]?
A: cell viability of C2C12 [2]: no change; expression of MyoD (qPCR) vs. control [3]: increased compared to the control, but was not at a significant level; expression of atrogin-1 (qPCR) vs. control [4]: slightly increased; protein expression of MyoD (western blotting) [5]: unchanged; miRNA-26a level in exosomes, fold change (vs. control) ([1]; FB treated with 1 mM): 1.821 fold; level of miRNA-26a in exosomes vs. untreated control ([1]; FB treated with betaine 0.1, 1 and 10 mM, 48 hours, FIG. 3): increased; expression of MURF1 (qPCR) vs. control [6]: slightly increased; expression of myostatin (qPCR) vs. control [7]: almost the same level; protein expression of MURF1 (western blotting) [8]: no change; protein expression of atrogin-1 (western blotting) [9]: no change; protein expression of myostatin (western blotting) [10]: no change; cell viability of FB [11]: no change
